The source of these data is PubChem BioAssay AID651579 (Sanford-Burnham Center for Chemical Genomics, 2012).

Molecules are shown by their SMILES. Calls of active or inactive are those of the source. The rule behind the calls is not given here.

The test has as its system C. elegans hsp-16.2 reporter, heat-shock counterscreen. The test is described as follows: heat-shock hsp-16.2 reporter inhibition in worms, dose response, counter-screen for SKN-1 inhibitor project, whole organism, C. elegans (AID 651579).
As for `Brc1ccc(-c2nc(-c3ccccc3)no2)o1`, the IC50 was > 64 µM (inactive). To `O=C(Nc1nccs1)c1ccc2ccccc2n1` belongs > 64 µM (inactive); to `Clc1ccccc1-c1nc(-c2ccncc2)no1`, > 64 µM (inactive). With `c1ccc2sc(SCc3ccc(-c4nnco4)cc3)nc2c1` the figure was > 64 µM (inactive). To `Clc1ccsc1-c1ccc2ccccc2n1` belongs > 64 µM (inactive); to `CCOc1cc(CNC2CCCC2)cc(Cl)c1OCc1ccc(F)cc1`, > 64 µM (inactive); to `Brc1ccc(CSc2nnc(-c3cccnc3)o2)cc1`, 45.4 µM. For the molecule `Brc1ccc2oc(-c3ccn[nH]3)cc2c1`, the IC50 was > 64 µM (inactive). To `C(=C\c1nc(-c2ccncc2)no1)/c1ccccc1` belongs > 64 µM (inactive); to `O=C(Nc1ccc(SC(F)F)cc1)c1ccccc1F`, > 64 µM (inactive); to `Fc1ccc(COc2ccc(-c3nnco3)cc2)c(Cl)c1`, > 64 µM (inactive). With `O=C(/C=C/c1ccc(Cl)cc1)Nc1ccc(CN2CCOCC2)cc1` the figure was > 64 µM (inactive); with `Cc1ccc(N=C/C(C(=O)C(F)(F)F)=C(\O)c2ccco2)cc1Cl`, 37.7 µM. Turning to `CCCn1nc2cc(C(=O)NCc3ccc(OC(F)(F)F)cc3)ccc2c1OCC`, the IC50 is > 64 µM (inactive). With `O=C(/C=C/Nc1ccc(Br)cc1F)c1ccco1` the figure was > 64 µM (inactive). In the case of `O=[N+]([O-])c1ccc(NCc2ccc(Cl)cc2)nc1`, the IC50 was > 64 µM (inactive). With `CCCCOc1ccc(C(=O)OC2CC(C)N(C)CC2C)cc1` (stereo unspecified) the figure was > 64 µM (inactive); with `Clc1ccccc1-c1nnc(-c2ccccc2Cl)o1`, > 64 µM (inactive); with `O=C(c1cccs1)c1ccc(-c2cccs2)s1`, > 64 µM (inactive). To `CC(C)(C)N=C1NN=C(c2ccc(Cl)cc2)CS1` belongs > 64 µM (inactive); to `O=C(CC(O)(C(F)(F)F)C(F)(F)F)Nc1ccc(Cl)c(Cl)c1`, > 64 µM (inactive); to `Cc1ccc2nc(-c3ccc(NC(=S)NC4CC(C)(C)NC(C)(C)C4)cc3)sc2c1`, > 64 µM (inactive). With `O=C(Nc1ccc(CN2CCOCC2)cc1)c1cc2ccccc2o1` the figure was 4.25 µM. For the molecule `Clc1ccc(OCCCc2nc(-c3ccncc3)no2)c(Cl)c1`, the IC50 was > 64 µM (inactive). As to `Cc1ccc(Nc2nc(-c3cccs3)cs2)nc1`, the IC50 was 13.6 µM. To `O=C(C=Cc1cccs1)c1ccc(Cl)s1` belongs > 64 µM (inactive). Take `O=C(Nc1nccs1)c1ccc2ccccc2c1`: the IC50 is > 64 µM (inactive).

`Clc1ccc(-c2nnc(-c3ccco3)o2)cc1`: the IC50 is 2.68 µM. To `Cc1ccc(-c2noc(-c3cccs3)n2)cc1` belongs > 64 µM (inactive); to `Clc1ccc(C#Cc2cccnc2)cc1`, 2.57 µM. To `c1ccc(-c2ccc(-n3ccnc3)cc2)cc1` belongs 48.4 µM. With `Cc1ccc(CSc2nnc(-c3ccco3)o2)cc1` the figure was 30.6 µM; with `O=C(/C=C/Nc1ccc(F)cc1F)c1cccs1`, 21.4 µM; with `c1ccc(Nc2nc(-c3cccs3)cs2)nc1`, > 64 µM (inactive). Turning to `O=C(C=Cc1ccccc1)CC(c1ccccc1)N1CCOCC1` (stereo unspecified), the IC50 is > 64 µM (inactive). To `O=C(/C=C/c1ccc(Br)cc1)c1ccc(NC2=NCCCS2)cc1` belongs > 64 µM (inactive); to `Brc1ccc2nc(N3CCCC3)sc2c1`, > 64 µM (inactive). Take `O=C(/C=C/Nc1ccc(F)c(F)c1)c1cccs1`: the IC50 is > 64 µM (inactive). With `CCN(CC)c1ccc(/C=C2\C(=O)c3ccc(C(=O)O)cc3C2=O)cc1` the figure was > 64 µM (inactive); with `Clc1ccc(Cn2nnc(-c3ccccc3)n2)cc1`, > 64 µM (inactive); with `Clc1ccc2nc(-c3ccc(Br)s3)cn2c1`, 15.9 µM. To `Cc1oc(-c2ccc(-c3ccccc3)cc2)nc1CN(C)C1CCOC1` (stereo unspecified) belongs > 64 µM (inactive).

Take `Brc1ccc(CSc2nnc(-c3ccco3)o2)cc1`: the IC50 was > 64 µM (inactive).

On to `COc1ccc2c(c1)OC/C(=C/c1cccs1)C2=O`, for which the IC50 is > 64 µM (inactive). For `Clc1ccc(C=Cc2ccccn2)cc1`, the IC50 is > 64 µM (inactive). To `O=C(Nc1nc2c(ccc3ccccc32)s1)c1ccco1` belongs > 64 µM (inactive); to `CCc1ccc(C(=O)Nc2ccc3nc(C)ccc3c2)cc1`, > 64 µM (inactive); to `Cc1nc2ccccc2cc1OCc1ccc(F)cc1`, > 64 µM (inactive). In the case of `Cn1c(=O)c2c(-c3ccccc3)n(-c3ccc(N)cc3)cc2n(C)c1=O`, the IC50 was 3.62 µM. To `Cc1ccccc1-c1noc(-c2cccs2)n1` belongs > 64 µM (inactive); to `FCCCOc1ccc(-c2nccc(-c3ccccn3)n2)cc1`, > 64 µM (inactive).

For `Fc1ccc(-c2cnc(-c3cccs3)o2)cc1`, the IC50 is > 64 µM (inactive). Consider `COc1cc(CNC2CCCC2)cc(Cl)c1OCc1ccc(F)cc1`, for which the IC50 is 42.7 µM. With `O=[N+]([O-])c1ccc2nc(-c3ccccc3)oc2c1` the figure was > 64 µM (inactive); with `COc1ccc(C(=O)Nc2nc(-c3cccs3)cs2)cc1`, > 64 µM (inactive); with `CC1=NN(c2ccccc2)C(=O)/C1=C\C=C1/N(C)c2ccccc2C1(C)C`, > 64 µM (inactive). With `O=C(/C=C/c1cccs1)c1ccc(Br)cc1` the figure was > 64 µM (inactive); with `CCOc1cc(CNCCSc2nnnn2C)cc(Br)c1OCc1ccc(F)cc1`, > 64 µM (inactive); with `CCN(CC)Cc1ccc(NC(=O)c2sc3cc(Cl)ccc3c2Cl)cc1`, > 64 µM (inactive).

With `Brc1ccc(-c2nnc(-c3ccco3)o2)cc1`, the IC50 is > 64 µM (inactive).

With `CCOc1cc(CNC2CCCC2)cc(Cl)c1OCc1ccccc1`, the IC50 is > 64 µM (inactive). With `CCN(CC)c1ccc(/C=C2/C(=O)c3ccc(C(=O)O)cc3C2=O)cc1` the figure was > 64 µM (inactive); with `Fc1ccc(COc2ccc(-c3nnco3)cc2)cc1`, > 64 µM (inactive); with `Fc1ccc(-c2csc(Nc3ccccn3)n2)cc1`, > 64 µM (inactive). Take `Fc1ccc(-n2nnc(-c3cccnc3Cl)n2)cc1`: the IC50 is > 64 µM (inactive). With `Clc1ccc(C=Cc2ccccn2)c(Cl)c1` the figure was 22.9 µM. On to `Clc1ccc(-c2nnc(-c3ccccc3)o2)c(Cl)c1`, for which the IC50 was > 64 µM (inactive). As to `CSc1cccc(NC(=O)c2cccc3cccnc23)c1`, the IC50 was 46.3 µM. As to `CC/C(=C\c1ccc(Cl)cc1)c1ccncc1`, the IC50 was > 64 µM (inactive). Turning to `CCOC(=O)Nc1nc(-c2ccc(F)cc2F)cs1`, the IC50 is 47.7 µM. As for `Fc1ccc(-c2csc(-c3ccncc3)n2)cc1`, the IC50 is > 64 µM (inactive). As for `O=C(Nc1ccc(Cl)cn1)c1ccccc1F`, the IC50 was > 64 µM (inactive). To `Fc1ccc(Cn2nnc(-c3ccc(CN4CCOCC4)cc3)n2)cc1` belongs 4.88 µM; to `CCOC(=O)c1c(-c2ccc(-c3ccccc3)cc2)csc1NC(=O)CNCCN(C)C`, > 64 µM (inactive).

`O=C(Nc1nc(-c2ccc(Cl)s2)cs1)c1ccco1`: the IC50 was > 64 µM (inactive). As for `c1ccc(-c2csc(Nc3ccccn3)n2)cc1`, the IC50 was > 64 µM (inactive). To `Clc1ccc(OCc2cnc(Cl)s2)cc1` belongs > 64 µM (inactive). Turning to `O=C(Nc1ccc(OC(F)F)c(Cl)c1)c1ccccn1`, the IC50 was > 64 µM (inactive). To `O=C(NCc1ccncc1)c1ccc(-c2ccc(F)c(F)c2)c2ccoc12` belongs > 64 µM (inactive); to `O=C(/C=C/Nc1ccccc1F)c1cccs1`, > 64 µM (inactive). Consider `O=c1cc(-c2ccc(F)cc2)oc2ccccc12`, for which the IC50 was > 64 µM (inactive). To `N=C1C=CC(=C(c2ccc(N)cc2)c2ccc(N)cc2)C=C1` belongs > 64 µM (inactive). To `O=[N+]([O-])c1ccc(OCc2cnc(Cl)s2)cc1` belongs 42.3 µM; to `CN1CCN(c2ccc(NC(=O)c3ccc(Oc4ccccc4)cc3)cc2)CC1`, > 64 µM (inactive); to `COc1cc(CNC(C)(C)CO)cc(Br)c1OCc1ccc(Cl)cc1`, > 64 µM (inactive). Turning to `CCc1nc2c(OCc3ccc(C(F)(F)F)cc3)cccn2c1N(C)C(=O)c1ccncc1`, the IC50 was 49.9 µM. To `CN(C)CC(O)c1ccc(C=Cc2ccc(Cl)cc2)cc1` (stereo unspecified) belongs > 64 µM (inactive). For `O=C(Nc1nc(-c2ccc(Cl)s2)cs1)c1cccs1`, the IC50 was > 64 µM (inactive). On to `c1ccc(-c2csc(-c3ccncc3)n2)cc1`, for which the IC50 is > 64 µM (inactive).

For `Cc1c(N2C(=O)/C(=C\c3ccc(N(C)C)cc3)N(C)C2=S)c(=O)n(-c2ccccc2)n1C`, the IC50 is > 64 µM (inactive). With `COc1cc(CNC(C)c2ccccc2)cc(Br)c1OCc1ccc(F)cc1` (stereo unspecified) the figure was > 64 µM (inactive); with `O=[N+]([O-])c1ccc2cn(-c3ccccc3)nc2c1`, > 64 µM (inactive); with `CCOc1ccc(-c2nc(-c3cccnc3)no2)cc1`, > 64 µM (inactive). With `c1ccc(-c2nc3cc4ccccc4cc3[nH]2)nc1` the figure was 5.91 µM; with `O=C(N=C1N=C2C=CC(Br)=CN2Cc2ccccc21)c1ccc([N+](=O)[O-])cc1[N+](=O)[O-]`, > 64 µM (inactive). To `C(=C\c1nnc(-c2cccs2)o1)/c1ccccc1` belongs > 64 µM (inactive); to `O=C(Nc1nc(-c2ccc(Cl)s2)cs1)c1ccccc1`, 22.6 µM.

Turning to `Fc1ccc(CSc2ncnc3ccccc23)cc1`, the IC50 was > 64 µM (inactive). In the case of `O=[N+]([O-])c1ccc(COc2ccc(CN3CCCC3)cc2)cc1`, the IC50 is > 64 µM (inactive). With `CCc1ccc(-c2nc(-c3ccncc3)no2)cc1` the figure was 33.5 µM. To `CSc1ccc(-c2cc(=O)c3ccccc3o2)cc1` belongs > 64 µM (inactive).
